The source of these data is US20260083750A1, “SMALL MOLECULE INHIBITORS OF KRAS PROTEINS” (MERCK SHARP & DOHME LLC, priority 2022, published 2026).

Experiment in all cases: SOS-catalyzed nucleotide exchange assay (Procedure B, BODIPY FL GDP displacement)
What all share (assay type): biochemical

Test [1] addresses T1, KRAS G12D (amino acids 1-169) (Homo sapiens, UniProt P01116, G12D).
T1 construct: made in house; host or cells: E. coli
As to conditions: Procedure B (Example Nos. 18, 21, 23, 33-34); 1 hour incubation, SOS1 + GMPPNP; read-out: KRAS G12D GNE IC50. How it is done:
(§1) Procedure for SOS-Catalyzed Nucleotide Exchange Assay for KRAS-G12C/D/V (Procedure B)
(§2) Recombinant KRAS G12C (amino acids 1-169, SEQ ID NO:8), KRAS G12D (amino acids 1-169, SEQ ID NO:9), KRAS G12V (amino acids 1-169, SEQ ID NO:10) and SOS1 (amino acids 564-1049, SEQ ID NO:11) proteins were expressed in E. coli and purified by affinity chromatography. To prepare each BODIPY™ FL GDP-bound KRAS mutant protein, 50 μM KRAS mutant proteins were incubated with 0.5 mM BODIPY™ FL GDP (Invitrogen, G22360) in a loading buffer (20 mM Tris-HCl pH 7.5, 50 mM NaCl, 1 mM DTT and 2.5 mM EDTA) for 1 hour on ice. After the incubation, MgCl2 was added to a final concentration of 10 mM, followed by an incubation at room temperature for 30 minutes. The mixtures were allowed to pass through a NAP-5 column to remove free nucleotides and purified BODIPY™ FL GDP-bound KRAS G12C, G12D and G12V proteins were used for compound evaluation.
(§3) The inhibitory activity of compounds on recombinant KRAS mutants is measured by the displacement of the bound BODIPY™ GDP. Specifically, 2.5 nM of each BODIPY™ FL GDP-bound KRAS mutant complex was incubated with various concentrations of compound in a reaction buffer (20 mM Tris-HCl pH 7.5, 100 mM NaCl, 1 mM MgCl2, 2 mM DTT, 0.1% Tween 20) at 25° C. for 1 hour. After the incubation, recombinant SOS1 and GMPPNP (Jena Bioscience GmbH, NU-401) were added and incubated at room temperature for 30 minutes to proceed SOS1-dependent GDP-GTP exchange reaction on KRAS mutants. Displacement of BODIPY™ FL GDP by Guanosine-5′-[(β,γ)-imido]triphosphate, Tetralithium salt (GMPPNP) was measured by calculating the ratio of fluorescence intensities of BODIPY™ FL before and after the exchange reaction. […] Dose response curves were analyzed using a 4-parameter logistic model to calculate IC50 values.
(§4) For Example Nos. 1-17, 19-20, 22, 24-32, and 35-53 nucleotide exchange assays for KRAS G12D, G12C, G12V, and G13D were performed according to Procedure A. For Example Nos. 18, 21, 23, and 33-34, nucleotide exchange assays for KRAS G12D, G12C, and G12V were performed according to Procedure B.

The target of test [2] is T2, KRAS G12C (amino acids 1-169) (Homo sapiens, UniProt P01116, G12C).
T2 construct: made in house; host or cells: E. coli
As to conditions: Procedure B (Example Nos. 18, 21, 23, 33-34); 1 hour incubation, SOS1 + GMPPNP; read-out: KRAS G12C GNE IC50. How it is done: as §1, §2, §3, §4

For test [3], the target named is T3, KRAS G12V (amino acids 1-169) (Homo sapiens, UniProt P01116, G12V).
T3 construct: made in house; host or cells: E. coli
As to conditions: Procedure B (Example Nos. 18, 21, 23, 33-34); 1 hour incubation, SOS1 + GMPPNP; read-out: KRAS G12V GNE IC50. As to the method:
as §1, §2, §3, §4

T1 sequence (P01116 with tags, fused parts or gaps isoform P01116-2 G12D): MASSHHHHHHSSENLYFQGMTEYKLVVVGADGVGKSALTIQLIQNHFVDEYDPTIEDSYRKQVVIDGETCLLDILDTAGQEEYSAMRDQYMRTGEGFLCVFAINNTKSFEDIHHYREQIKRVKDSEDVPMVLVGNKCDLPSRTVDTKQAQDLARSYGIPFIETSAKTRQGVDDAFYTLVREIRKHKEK
T3 sequence (P01116 with tags, fused parts or gaps isoform P01116-2 G12V): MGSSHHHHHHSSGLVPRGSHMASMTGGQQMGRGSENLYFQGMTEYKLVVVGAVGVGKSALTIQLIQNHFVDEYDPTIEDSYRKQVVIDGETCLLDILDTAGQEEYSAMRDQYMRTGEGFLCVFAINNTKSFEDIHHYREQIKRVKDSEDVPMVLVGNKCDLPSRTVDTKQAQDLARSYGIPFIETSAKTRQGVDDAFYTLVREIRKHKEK
T2 sequence (P01116 with tags, fused parts or gaps isoform P01116-2 G12C): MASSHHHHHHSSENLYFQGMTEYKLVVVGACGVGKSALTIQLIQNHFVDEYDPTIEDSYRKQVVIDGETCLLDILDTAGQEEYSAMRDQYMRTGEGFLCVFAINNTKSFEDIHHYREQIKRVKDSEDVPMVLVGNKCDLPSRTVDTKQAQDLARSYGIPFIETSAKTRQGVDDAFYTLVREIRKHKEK

Take `N#Cc1c(N)sc2c(F)ccc(-c3c(Cl)cc4c(N5CCCOCC5)nc(OC[C@@]56CCCN5C[C@H](F)C6)nc4c3F)c12` (single isomer, unassigned) [Ex. 18]: the results for the half-inhibitory concentration (IC50) in test [1], in test [2] and in test [3] were 0.00534 µM, 0.00281 µM and 0.00291 µM, respectively.

Turning to `N#Cc1c(N)sc2c(F)ccc(-c3c(Cl)cc4c(N5CCCOCC5)nc(OC[C@]5(CO)CC5(F)F)nc4c3F)c12` (single isomer, unassigned) [Ex. 33], the IC50 in test [1] is 4.88 µM; in test [2] it was 1.02 µM; in test [3] it was 2.23 µM.

In the case of `N#Cc1c(N)sc2c(F)cc(F)c(-c3ncc4c(N5CCCOCC5)nc(OC[C@@]56CCCN5C[C@H](F)C6)nc4c3F)c12` [Ex. 23, 2-amino-5,7-difluoro-4-(8-fluoro-2-(((2R,7aS)-2-fluorotetrahydro-1H-pyrrolizin-7a(5H)-yl)methoxy)-4-(1,4-oxazepan-4-yl)pyrido[4,3-d]pyrimidin-7-yl)benzo[b]thiophene-3-carbonitrile], the IC50 in test [1] was 0.14 µM; in test [2] it was 0.0334 µM; in test [3], 0.0769 µM.

Consider `N#Cc1c(N)sc2c(F)ccc(-c3c(C(F)(F)F)cc4c(N5CCCOCC5)nc(OC[C@@]56CCCN5C[C@H](F)C6)nc4c3F)c12` [Ex. 34, 2-amino-7-fluoro-4-(8-fluoro-2-(((2R,7aS)-2-fluorotetrahydro-1H-pyrrolizin-7a(5H)-yl)methoxy)-4-(1,4-oxazepan-4-yl)-6-(trifluoromethyl)quinazolin-7-yl)benzo[b]thiophene-3-carbonitrile], for which the IC50 in test [1] was 0.00343 µM; in test [2], 0.0018 µM; in test [3] it was 0.00167 µM.

Regarding `C[C@H]1CCOCCN1c1nc(OC[C@@]23CCCN2C[C@H](F)C3)nc2c(F)c(-c3ccc(F)c4sc(N)c(C#N)c34)ncc12` [compound 21, 2-amino-7-fluoro-4-(8-fluoro-2-(((2R,7aS)-2-fluorotetrahydro-1H-pyrrolizin-7a(5H)-yl)methoxy)-4-((S)-5-methyl-1,4-oxazepan-4-yl)pyrido[4,3-d]pyrimidin-7-yl)benzo[b]thiophene-3-carbonitrile], the concentration for half-maximal inhibition (IC50) in test [1] was found to be 0.136 µM; in test [2], 0.0208 µM; in test [3], 0.0636 µM.

For orientation: IC50 means the concentration at which inhibition is half-maximal.
